In US4385175A, “Esters of retinoic acid and azetidinone derivatives” (Bristol-Myers Company, priority 1982, dated 1983):
Like-named read-outs stand apart in the source and are kept apart here.

System: squamous metoplasia and keratinization in organ cultures of trachea derived from vitamin A-deficient hamsters
Test: inhibition of squamous metaplasia and keratinization (reversal of keratinization) in tracheal organ cultures
Format: cell-based, hamster
Settings: Mesocricetus auratus, read-out: Reversal of Keratinization ED50
[1] = median effective dose: dose required for reversal of keratinization of 50% of the explants, by probit analysis, hamster trachea organ culture

Structure (SMILES)	EC50 [1]	EC50
CC1=C(/C=C/C(C)=C/C=C/C(C)=C/C(=O)OCc2ccccc2N2C(=O)[C@@H](NC(=O)Cc3ccccc3)[C@H]2/C=C/c2ccccc2)C(C)(C)CCC1 (relative stereo) [Compound V]	198 pM	–
CC1=C(/C=C/C(C)=C/C=C/C(C)=C/C(=O)OCc2ccccc2N2C(=O)[C@@H](N=[N+]=[N-])[C@H]2/C=C/c2ccccc2)C(C)(C)CCC1 (relative stereo) [Compound IV]	407 pM	–
CC1=C(/C=C/C(C)=C/C=C/C(C)=C/C(=O)OC(C(=O)c2ccccn2)c2ccccn2)C(C)(C)CCC1 (centres unmarked) [Compound VII]	310 pM	–
CC1=C(/C=C/C(C)=C/C=C/C(C)=C/C(=O)O)C(C)(C)CCC1 [β-All-trans-retinoic acid, reference compound]	–	115 pM
CC1=C(/C=C/C(C)=C/C=C/C(C)=C/C(=O)OCc2cccc3c2N2C(=O)[C@@H](NC(=O)Cc4ccccc4)[C@H]2CO3)C(C)(C)CCC1 (relative stereo) [Compound VI]	390 pM	–
